Source: patent publication US10913750B2, “Tubulin-binding compounds, compositions and uses related thereto” (The Regents of the University of California, priority 2015, dated 2021)

Legend:
HeLa cells [1] = experiment: CellTiter-Glo cell viability, HeLa cells; type: cell-based; conditions: Homo sapiens; HeLa cells, 72 hours, CellTiter-Glo
Protocol: (§1) The cell viability IC50 of each compound was determined using Promega CellTiter-Glo Luminescent Cell Viability Assay kit by measuring the total ATP levels to quantify the number of metabolically active cells upon drug treatment as described in Crouch et al., J Immunol Methods 1993, 160, (1), 81-8. Briefly, the compounds were suspended in DMSO at 10 mM and diluted in 384 plates (20 μl/well in DMSO) in triplicate by a 14-point titration (12 nM to 100 μM). 50 μl of HeLa cells or patient derived glioblastoma cells (HK-309) (2000 cells/well) were then treated with the prepared dilutions of the drugs (0.5 μl) and incubated at 37° C. and 5% CO2. 72 hours later 50 μl of CellTiter-Glo reagent was added to each well followed by a 2 minutes shaking and a 10-minute incubation to lyse the cells. The relative luminescent intensity units (RLU) of each well was measured using a Tecan M1000 microplate reader (Tecan Group Ltd.) with its green filter and 1 second integration time.
(§2) Cells used in Example 2 and other examples disclosed herein were cultured as follows: Adherent HeLa cells and patient derived glioblastoma cells were grown with 5% CO2 at 37° C. in F12:DMEM 50:50 medium (Invitrogen) containing 10% FBS and 1% penicillin/streptomycin. To obtain HeLa cells synchronized in mitosis, cycling cells were treated with 2 mM thymidine (Sigma-Aldrich) for eighteen hours, washed three times with PBS, and released into fresh media until they entered mitosis eight hours post-release. Patient-derived glioblastoma cells (HK-309) were collected and grown with approval from the UCLA Institutional Review Board. HK-309 was derived from a recurrent glioblastoma taken from a person. The cells were initially propagated as cancer stem cell-containing spheres in serum-free medium containing basic fibroblast growth factor and epidermal growth factor (Preprotech) as described previously by Visnyei et al., Mol Cancer Ther 2011, 10, (10), 1818-28.
For mitotic arrest IC50s, cells were treated with a twenty-point-2-fold-titration (190 pM to 10 μM) of each compound tested for 20 hours. For cell viability IC50s, cells were treated with a fourteen-point-2-fold-titration (12.2 nM to 100 μM). Mitotic arrest IC50 was determined by measuring the percent G2/M arrest using the Vybrant DyeCycle Green (Invitrogen) assay described above. Cell viability IC50 was determined using the CellTiter-Glo Assay (Promega), which measures total ATP levels. Plates were read with a Tecan M1000 micro-plate reader at 540 nm. The CDD software was used for generating IC50 and IC90 values.

[2] = tested on: patient-derived glioblastoma cells (HK-309); experiment: CellTiter-Glo cell viability, patient-derived glioblastoma cells; type: cell-based; conditions: HK-309, 72 hours
Protocol: as §1, §2

tubulin = molecular target: T1, tubulin (Sus scrofa, UniProt P02554); experiment: In vitro tubulin polymerization assay (HTS-tubulin polymerization kit, Cytoskeleton); type: biochemical; conditions: 3 μM compound, fluorescence, 70 minutes at 37° C.
T1 construct: purchased Cytoskeleton Inc. BK011P
Protocol: 1.5 ul of 10× strength compound, 20 μl of tubulin solution and Triton X-100 at a final concentration of 0.01% were added to each well in a 384 well plate. The reactions were assembled on ice to prevent tubulin pre-polymerization. For kinetic measurements, microtubule polymerization was monitored by reading the fluorescence at 420 nm (due to the incorporation of a fluorescent reporter into microtubules as polymerization occurs) every ten seconds using a Tecan M1000 microplate reader (FIG. 6B). […] Fluorescence increased as polymerization occurred, due to the incorporation of 4′,6-diamidino-2-phenylindole. Fluorescence was monitored every minute for 70 minutes at 37° C.
Tubulin polymerization reactions were carried out according to the manufacturer (Cytoskeleton, BK011P) in the presence of 3 μM colchicine, MI-181, taxol or DMSO. Polymerization was monitored with a Tecan M1000 micro-plate reader at 420 nm for 70 minutes at 37° C. The results are depicted in FIG. 11.

HeLa cells [3] = experiment: Microtubule stability by immunofluorescence microscopy; type: cell-based; conditions: increasing concentrations, anti-α-tubulin staining
Protocol: Next, microtubule stability was analyzed in HeLa cells treated with increasing concentrations of each of these three compounds by fixing the cells with 4% paraformaldehyde, staining them with Hoechst 33342 (DNA dye) to visualize their DNA and anti-α-tubulin antibodies to visualize microtubule structures and then imaging them by immunofluorescence microscopy.

M233 = experiment: Melanoma colony formation, M233; type: cell-based; conditions: 10 nM, M233 (first value of pair)
Protocol: (§3) To determine if MI-181 had broad anti-cancer activity, we treated a diverse panel of cancer cell lines including cervical adenocarcinoma (HeLa), breast adenocarcinoma (MCF7), melanoma (M233), osteosarcoma (U205), acute lymphoblastic leukemia (CCRF-CEM), non-small cell lung carcinoma (NCI-H460), and breast adenocarcinoma (MCF7) with MI-181 and determined its cell viability IC50 (FIGS. 13A and 13B). […] Therefore, the efficacy of MI-181 was analyzed in a panel of melanoma cell lines with defined genetic backgrounds including BRAF^V600E and NRAS^Q61L mutations and varied sensitivities to Vemurafenib (BRAF inhibitor) and Trametinib (MEK inhibitor), which are currently used to treat BRAF^V600E melanomas^43,44 (FIG. 10c). […] As a general trend BRAF^V600E cell lines were slightly more sensitive than NRAS^Q61L cell lines and MI-181 was effective in Vemurafenib and Trametinib resistant cell lines (FIG. 10c and Table 3). Finally, we tested the ability of MI-181 to inhibit melanoma colony formation using the M233 and M308 cell lines (both resistant to Vemurafenib). Indeed, MI-181 was a potent inhibitor of colony formation (percentage colony formation for 10 nM MI-181=0.2±0.1 and 0.8±0.7; for 10 nM colchicine=0.1±0.06 and 1.5±0.5; and for 10 nM Vemurafenib=94±7 and 102±5) (FIG. 10d). Thus, MI-181 is a potent inhibitor of melanoma cell lines.

M308 = experiment: Melanoma colony formation, M308; type: cell-based; conditions: 10 nM, M308 (second value of pair)
Protocol: as §3

T1 sequence (P02554 whole entry): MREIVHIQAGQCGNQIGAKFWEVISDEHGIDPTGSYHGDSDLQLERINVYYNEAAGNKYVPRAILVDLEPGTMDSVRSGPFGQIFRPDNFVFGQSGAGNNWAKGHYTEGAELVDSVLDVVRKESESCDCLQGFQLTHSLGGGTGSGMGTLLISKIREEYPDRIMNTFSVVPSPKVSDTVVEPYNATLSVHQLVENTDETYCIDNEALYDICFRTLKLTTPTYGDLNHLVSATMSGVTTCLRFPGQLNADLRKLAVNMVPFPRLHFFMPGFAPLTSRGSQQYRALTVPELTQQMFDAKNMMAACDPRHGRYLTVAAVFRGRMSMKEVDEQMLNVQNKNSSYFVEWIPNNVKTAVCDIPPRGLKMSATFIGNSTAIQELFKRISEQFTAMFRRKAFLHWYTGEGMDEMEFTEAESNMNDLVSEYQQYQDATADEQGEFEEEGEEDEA
T1 sequence (P02550 whole entry partner): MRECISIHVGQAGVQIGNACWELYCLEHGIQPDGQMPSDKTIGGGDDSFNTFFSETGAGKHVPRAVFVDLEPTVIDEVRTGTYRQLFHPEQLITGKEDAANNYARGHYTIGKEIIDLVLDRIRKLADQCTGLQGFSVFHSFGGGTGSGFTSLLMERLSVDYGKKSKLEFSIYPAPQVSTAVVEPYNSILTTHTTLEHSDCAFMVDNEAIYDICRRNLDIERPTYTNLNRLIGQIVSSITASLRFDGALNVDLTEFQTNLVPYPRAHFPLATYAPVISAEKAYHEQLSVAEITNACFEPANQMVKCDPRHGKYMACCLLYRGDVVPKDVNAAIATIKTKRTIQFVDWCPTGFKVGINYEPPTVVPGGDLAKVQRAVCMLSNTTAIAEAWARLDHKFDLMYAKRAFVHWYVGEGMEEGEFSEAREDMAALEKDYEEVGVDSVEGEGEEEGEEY

Compound	IC50 (HeLa cells [1]) [µM]	also measured
O=c1[nH]c(/C=C/c2ccc(F)cc2F)nc2sc3c(c12)CCCC3 [Compound 10a, (E)-2-(2,4-difluorostyryl)-5,6,7,8-tetrahydrobenzo[4,5]thieno[2,3-d]pyrimidin-4(3H)-one]	0.246	IC50 [2]: 0.283 µM; inhibition of microtubule (tubulin) polymerization in vitro (tubulin): potent inhibitors of microtubule polymerization similar to colchicine; microtubule stability in treated cells (HeLa cells [3]): destabilized in a drug dose-dependent manner
O=c1[nH]c(/C=C/c2cc(F)ccc2F)nc2sc3c(c12)CCCC3 [Compound 10b, (E)-2-(2,5-difluorostyryl)-5,6,7,8-tetrahydrobenzo[4,5]thieno[2,3-d]pyrimidin-4(3H)-one]	0.159	IC50 [2]: 0.113 µM; inhibition of microtubule (tubulin) polymerization in vitro (tubulin): potent inhibitors of microtubule polymerization similar to colchicine; microtubule stability in treated cells (HeLa cells [3]): destabilized in a drug dose-dependent manner
O=c1[nH]c(/C=C/c2ccc(F)cc2)nc2sc3c(c12)CCCC3 [Compound 10c, (E)-2-(4-fluorostyryl)-5,6,7,8-tetrahydrobenzo[4,5]thieno[2,3-d]pyrimidin-4(3H)-one]	1.11	–
COc1cccc(/C=C/c2nc3sc4c(c3c(=O)[nH]2)CCCC4)c1 [Compound 10d, (E)-2-(3-methoxystyryl)-5,6,7,8-tetrahydrobenzo[4,5]thieno[2,3-d]pyrimidin-4(3H)-one]	4.21	–
CSc1ccc(/C=C/c2nc3sc4c(c3c(=O)[nH]2)CCCC4)cc1 [Compound 10e, (E)-2-(4-methylthiostyryl)-5,6,7,8-tetrahydrobenzo[4,5]thieno[2,3-d]pyrimidin-4(3H)-one]	6.31	–
CCOc1ccc(/C=C/c2nc3sc4c(c3c(=O)[nH]2)CCCC4)cc1OC [Compound 10f, (E)-2-(4-ethoxy-3-methoxystyryl)-5,6,7,8-tetrahydrobenzo[4,5]thieno[2,3-d]pyrimidin-4(3H)-one]	25.9	–
Cc1cccc(/C=C/c2nc3sc4c(c3c(=O)[nH]2)CCCC4)c1 [Compound 10g, (E)-2-(3-methylstyryl)-5,6,7,8-tetrahydrobenzo[4,5]thieno[2,3-d]pyrimidin-4(3H)-one]	> 100	–
COc1ccc(/C=C/c2nc3sc4c(c3c(=O)[nH]2)CCCC4)cc1 [Compound 10h, (E)-2-(4-methoxystyryl)-5,6,7,8-tetrahydrobenzo[4,5]thieno[2,3-d]pyrimidin-4(3H)-one]	50.9	–
O=c1[nH]c(/C=C/c2ccc(Br)cc2)nc2sc3c(c12)CCCC3 [Compound 10i, (E)-2-(4-bromostyryl)-5,6,7,8-tetrahydrobenzo[4,5]thieno[2,3-d]pyrimidin-4(3H)-one]	> 100	–
O=c1[nH]c(/C=C/c2ccc(F)c(F)c2)nc2sc3c(c12)CCCC3 [Compound 10j, (E)-2-(3,4-difluorostyryl)-5,6,7,8-tetrahydrobenzo[4,5]thieno[2,3-d]pyrimidin-4(3H)-one]	> 100	–
COc1ccc(/C=C/c2nc3sc4c(c3c(=O)[nH]2)CCCC4)cc1OC [Compound 10k, (E)-2-(3,4-dimethoxystyryl)-5,6,7,8-tetrahydrobenzo[4,5]thieno[2,3-d]pyrimidin-4(3H)-one]	> 100	–
CCOc1ccc(/C=C/c2nc3sc4c(c3c(=O)[nH]2)CCCC4)cc1 [Compound 10l, (E)-2-(4-ethoxystyryl)-5,6,7,8-tetrahydrobenzo[4,5]thieno[2,3-d]pyrimidin-4(3H)-one]	> 100	–
Cc1ccc(/C=C/c2nc3sc4c(c3c(=O)[nH]2)CCCC4)cc1 [Compound 10m, (E)-2-(4-methylstyryl)-5,6,7,8-tetrahydrobenzo[4,5]thieno[2,3-d]pyrimidin-4(3H)-one]	> 100	–
O=c1[nH]c(/C=C/c2ccccc2C(F)(F)F)nc2sc3c(c12)CCCC3 [Compound 10u]	> 100	–
CCCS(=O)(=O)Nc1ccc(F)c(C(=O)c2c[nH]c3ncc(-c4ccc(Cl)cc4)cc23)c1F [Vemurafenib]	–	percentage colony formation (M233): 94±7; percentage colony formation (M308): 102±5
COc1cc2c(c(OC)c1OC)-c1ccc(OC)c(=O)cc1[C@@H](NC(C)=O)CC2 [colchicine]	–	percentage colony formation (M233): 0.1±0.06; percentage colony formation (M308): 1.5±0.5
